The subject of one assay is S. aureus. Description: S. aureus bacterial proliferation assay. In kind it is cell-based. The settings on record: Staphylococcus aureus, read-out: S. aureus Proliferation EC50. In short, it runs like this: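 Growth in BHI with 25 mg/L Ca2+ and 12.5 mg/L Mg2+; log-phase cultures diluted to OD600 0.017 and exposed to compounds at 100 μM–46 nM (3-fold series). Stagnant 37 °C incubation, OD600 read at 6–8 h, corrected with bacteria-free plates; EC50 by variable-slope nonlinear regression.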
Turning to `O=C(Nc1ccc(Oc2ccc(Cl)cc2)c(Cl)c1)c1cc(I)cc(I)c1O` [Rafoxanide, reference compound], the EC50 is 0.3 µM.

Staying with this assay, now noted: Staphylococcus aureus; Table 1; cation adjusted BHI media, OD600 at 6-8 h; read-out: S. aureus Proliferation EC50.
Consider `O=C(Nc1ccc([N+](=O)[O-])cc1Cl)c1cc(Cl)ccc1O` [Niclosamide, reference compound], for which the EC50 was 0.074 µM.
With `CC(=O)Oc1ccccc1C(=O)Nc1ncc([N+](=O)[O-])s1` [Nitazoxanide, reference compound], the EC50 was 12 µM.
For the compound `O=C(Nc1cc(Cl)cc(Cl)c1O)c1c(O)c(Cl)cc(Cl)c1Cl` [Oxyclosanide, reference compound], the EC50 turned out to be 0.52 µM.
As for `O=C(Nc1ncc([N+](=O)[O-])s1)c1ccccc1O` [Tizoxanide, reference compound], the EC50 worked out at 9.7 µM.

The assay is the same for the next values; noted with them: Staphylococcus aureus; Table 3; cation adjusted BHI media, OD600 at 6-8 h; read-out: S. aureus Proliferation EC50.
For the compound `COc1ccc(NC(=O)c2cc(Cl)ccc2O)cc1` [Compound 113, 5-chloro-2-hydroxy-N-(4-methoxyphenyl)benzamide], the EC50 came to 31 µM.
The same measure, in the same setting: the value for `COc1ccc(Cl)cc1C(=O)Nc1ccc(O)cc1` [Compound 114, 5-chloro-N-(4-hydroxyphenyl)-2-methoxybenzamide] was over 100 µM; that for `O=C(Nc1ccc(O)cc1)c1cc(Cl)ccc1O` [Compound 115, 5-chloro-2-hydroxy-N-(4-hydroxyphenyl)benzamide] was over 100 µM; that for `COc1ccc(Cl)cc1C(=O)Nc1ccccc1` [Compound 116, 5-chloro-2-methoxy-N-phenylbenzamide] was over 100 µM.
As for `O=C(Nc1ccccc1)c1cc(Cl)ccc1O` [Compound 117, 5-chloro-2-hydroxy-N-phenylbenzamide], the EC50 amounted to 2.2 µM.
